Results: publication PMC6020026 (Bioorganic & medicinal chemistry letters, 2017)

Assay: Cytotoxicity on differentiated THP-1 macrophages
Format: cell-based
Settings: human
[1] = differentiated THP-1 macrophages

Row | Structure (SMILES) | CC50 [1] | CC50
1 | C[C@@H]1[C@H](O)[C@@H](C)/C=C/C=C/C=C/C=C/C=C/C=C/C=C/[C@H](O[C@@H]2O[C@H](C)[C@@H](O)[C@H](N)[C@@H]2O)C[C@@H]2O[C@](O)(C[C@@H](O)C[C@@H](O)[C@H](O)CC[C@@H](O)C[C@@H](O)CC(=O)O[C@H]1C)C[C@H](O)[C@H]2C(=O)O [Amph.B, Amphotericin B, reference compound] | 9.8 µM | –
2 | O=C(/C=C/c1ccc([N+](=O)[O-])o1)c1ccc(C2CCCCC2)cc1 [LabMol-72] | 31.1 µM | –
3 | O=C(/C=C/c1ccc([N+](=O)[O-])o1)c1ccc(I)cc1 [LabMol-78] | 49.5 µM | –
4 | CC(C)(C)c1ccc(C(=O)/C=C/c2ccc([N+](=O)[O-])s2)cc1 [LabMol-86] | 8.4 µM | –
5 | CSc1ccc(C(=O)/C=C/c2ccc([N+](=O)[O-])o2)cc1 [LabMol-92] | – | 13.1 µM
